In patent publication US20150031102A1, “METHODS AND COMPOSITIONS FOR ENHANCED PRODUCTION OF BUTANOL BY CLOSTRIDIA” (Butrolix LLC, priority 2012, published 2015):
Where “and” joins values, the source holds several entries; their conditions need not be identical. Identical values can stand only once.

Test system: C. acetobutylicum ATCC 824
Test: Sequential batch cultures of C. acetobutylicum ATCC 824 grown at 30° C. in YEPG (growth OD600, final pH, ceric ion reactive compounds)
Type: cell-based, Clostridium acetobutylicum
Conditions: for Final pH / Optical density at 600 nm / Optical density of ceric ion reactive compounds measured at 500 nm: 96 h culture
Experimental: Clostridium acetobutylicum ATCC 824 and C. beijerinckii NCIMB 8052 are available from several commercial microbial culture collections including the American Type Culture Collection (ATCC), Manassas, Va., USA. The strain grown at 30 C or 37 C in YE broth, which contained, per liter: 5.0 g yeast extract, 2.5 g casamino acids, 1.0 g L-asparagine, 0.5 g cysteine·HCl, 56 mg K2HPO4, 56 mg KH2PO4, 82 mg anhydrous MgSO4, 8 mg FeSO4.H2O, 6 mg MnSO4.H2O and 10 g glucose. Alternatively, strains were grown in YEPG broth, which was identical to YE expect that K2HPO4 and KH2PO4 were increased to 145 mg/L each and glucose was increased to 60 g/L. The pH of the media was adjusted to 7.2 using 45% KOH prior to sterilization by autoclaving. Media were solidified by addition of 1.5% Bacteriological Agar, Acumedia Manufacturers, Inc., Lansing, Mich. All cultures were grown in anaerobic conditions using the AnaeroPack System, Mitsubishi Gas Chemical Co., Inc., Japan, and GasPak EZ Gas Generating Sachets, Becton, Dickinson and Co., Sparks, Md. Spore stocks were kept at room temperature on agar-solidified media and were activated by suspending spores in 0.5 mL to 1.0 mL of medium followed by heating for 10 min at 80 C before inoculation into growth medium.
Growth of bacterial cultures was measured spectrophotometrically using optical density at 600 nm and pH of cell-free culture supernatants was measured using a hand-held Shindengen ISFET pH Meter KS501, Shendengen Electric Manufacturing Co., Ltd., Bannockburn, Ill.
Total alcohols in cell-free culture supernatants were measured using a modification of a colorimetric method based on ceric ammonium nitrate (Reid and Truelove, 1952). The ceric ion reagent was prepared by adding 1.3 mL of concentrated nitric acid to 40 mL of distilled water, then 10.96 g of ceric ammonium nitrate was dissolved in the dilute nitric acid solution and the solution was brought to a final volume of 50 mL. For the assay, […] of butanol standard or culture supernatant was mixed with […] distilled water in a disposable plastic cuvette followed by addition of […] of the ceric ion reagent. The sample was mixed by inverting the cuvette six times then exactly two minutes later the optical density at 500 nm wavelength was measured. The concentration of total alcohols was determined by comparison with a standard curve prepared by using butanol diluted in distilled water.
Spores of C. acetobutylicum ATCC 824 were germinated and grown overnight at 30 C under anaerobic conditions in YEPG medium. After about 24 h of growth, […] of the culture was transferred (transfer 1) to each of four flasks that contained 10 mL of YEPG and either had no treatment or were treated with peptide SEQ ID NO: 143 (see Table 8 and FIG. 1) at 1 nM, 10 nM or 50 nM. Thereafter, […] of each culture was transferred, at the same time, every 24-48 h to 10 mL of fresh YEPG that contained the same peptide treatment or no treatment. Each culture was stopped after 96 hours of incubation and optical density, pH and ceric ion reactive chemicals were measured. Sequential batch culturing was continued through 5 transfers at which point the untreated culture and those treated with 1 nM and 10 nM of peptide SEQ ID NO: 143 had stopped growing (Table 9). […] In addition, treatment with 1 nM of peptide SEQ ID NO: 143 appeared to stop growth at the first transfer, but growth was restored in the second and third transfers.

## SYPGWSW [peptide SEQ ID NO: 143]
1 nM, 30 °C, untreated culture stopped earlier
  Extension of growth during sequential batch cultures: growth through the third transfer
1 nM, transfer 1, 30 °C
  Final pH: 6.0
  Optical density at 600 nm: 0.005
  Optical density of ceric ion reactive compounds measured at 500 nm: 0.048
1 nM, transfer 2, 30 °C
  Final pH: 4.4
  Optical density at 600 nm: 2.274
  Optical density of ceric ion reactive compounds measured at 500 nm: 0.119
1 nM, transfer 3, 30 °C
  Final pH: 4.4
  Optical density at 600 nm: 2.165
  Optical density of ceric ion reactive compounds measured at 500 nm: 0.167
1 nM, transfer 4, 30 °C
  Final pH: 6.0
  Optical density at 600 nm: 0.044
  Optical density of ceric ion reactive compounds measured at 500 nm: 0.031
1 nM, transfer 5, 30 °C
  Final pH: 6.0
  Optical density at 600 nm: 0.004
  Optical density of ceric ion reactive compounds measured at 500 nm: 0.040
10 nM, 30 °C
  Extension of growth during sequential batch cultures: growth through the fourth transfer
10 nM, transfer 1, 30 °C
  Final pH: 4.4
  Optical density at 600 nm: 2.001
  Optical density of ceric ion reactive compounds measured at 500 nm: 0.175
10 nM, transfer 2, 30 °C
  Final pH: 4.4
  Optical density at 600 nm: 2.245
  Optical density of ceric ion reactive compounds measured at 500 nm: 0.184
10 nM, transfer 3, 30 °C
  Final pH: 4.5
  Optical density at 600 nm: 2.379
  Optical density of ceric ion reactive compounds measured at 500 nm: 0.187
10 nM, transfer 4, 30 °C
  Final pH: 4.5
  Optical density at 600 nm: 2.266
  Optical density of ceric ion reactive compounds measured at 500 nm: 0.192
10 nM, transfer 5, 30 °C
  Final pH: 5.9 and 6.0
  Optical density at 600 nm: 0.028
  Optical density of ceric ion reactive compounds measured at 500 nm: 0.043
50 nM, 30 °C
  Extension of growth during sequential batch cultures: growth through the fifth transfer
50 nM, transfer 1, 30 °C
  Final pH: 4.4
  Optical density at 600 nm: 1.879
  Optical density of ceric ion reactive compounds measured at 500 nm: 0.159
50 nM, transfer 2, 30 °C
  Final pH: 4.6
  Optical density at 600 nm: 2.089
  Optical density of ceric ion reactive compounds measured at 500 nm: 0.189
50 nM, transfer 3, 30 °C
  Final pH: 4.5
  Optical density at 600 nm: 2.313
  Optical density of ceric ion reactive compounds measured at 500 nm: 0.183
50 nM, transfer 4, 30 °C
  Final pH: 4.4
  Optical density at 600 nm: 2.187
  Optical density of ceric ion reactive compounds measured at 500 nm: 0.187
50 nM, transfer 5, 30 °C
  Final pH: 4.3
  Optical density at 600 nm: 2.173
  Optical density of ceric ion reactive compounds measured at 500 nm: 0.174
30 °C
  Culture degeneration in terms of number of sequential transfers and production of total alcohols: prevent culture degeneration
  Number of additional sequential transfers versus a culture without added peptide: at least four more times
Extrapolated from sequential batch transfers, dilution rate of 0.05/hour
  Expected extension of time in continuous culture: about five-fold
Extrapolated from sequential batch transfers, dilution rate of 0.05/hour, from about 140 hours without peptide
  Expected time in continuous culture: about 700 hours
